The NIST ThermoML archive (doi:10.1016/j.jct.2003.11.008)

Columns and labels:
[1] = excess molar enthalpy (molar enthalpy of mixing); xn = mol fraction of the nth substance listed; conditions: 318.15 K, 101.3 kPa, Liquid
[2] = xn = mol fraction of the nth substance listed; conditions: 318.15 K, 101.3 kPa, Liquid

CCCCCCCCC [nonane] + COC(C)=O
Conditions	excess molar enthalpy [kcal/mol]	excess molar volume [m3/mol]
[1], x2 = 0.0822	0.131	–
[1], x2 = 0.1628	0.241	–
[1], x2 = 0.2353	0.335	–
[1], x2 = 0.2999	0.398	–
[1], x2 = 0.364	0.448	–
[1], x2 = 0.4195	0.481	–
[1], x2 = 0.4714	0.497	–
[1], x2 = 0.5122	0.504	–
[1], x2 = 0.549	0.507	–
[1], x2 = 0.5847	0.506	–
[1], x2 = 0.621	0.502	–
[1], x2 = 0.6618	0.49	–
[1], x2 = 0.7017	0.463	–
[1], x2 = 0.7452	0.433	–
[1], x2 = 0.7891	0.388	–
[1], x2 = 0.8353	0.343	–
[1], x2 = 0.8771	0.289	–
[1], x2 = 0.9219	0.208	–
[1], x2 = 0.9643	0.103	–
[2], x2 = 0.1052	–	6.91e-07
[2], x2 = 0.2035	–	1.199e-06
[2], x2 = 0.2896	–	1.534e-06
[2], x2 = 0.3598	–	1.693e-06
[2], x2 = 0.4249	–	1.805e-06
[2], x2 = 0.4901	–	1.864e-06
[2], x2 = 0.547	–	1.881e-06
[2], x2 = 0.5991	–	1.837e-06
[2], x2 = 0.6418	–	1.774e-06
[2], x2 = 0.6901	–	1.658e-06
[2], x2 = 0.7312	–	1.562e-06
[2], x2 = 0.7687	–	1.431e-06
[2], x2 = 0.7969	–	1.305e-06
[2], x2 = 0.8736	–	9.39e-07
[2], x2 = 0.925	–	6.28e-07
[2], x2 = 0.9663	–	3.07e-07

CCCCCCCCCCCCCCC [pentadecane] + CCCCCOC(C)=O
Conditions	excess molar enthalpy [kcal/mol]	excess molar volume [m3/mol]
[1], x2 = 0.0764	0.0832	–
[1], x2 = 0.1647	0.162	–
[1], x2 = 0.2553	0.227	–
[1], x2 = 0.3274	0.268	–
[1], x2 = 0.3976	0.296	–
[1], x2 = 0.4632	0.312	–
[1], x2 = 0.5222	0.317	–
[1], x2 = 0.5758	0.314	–
[1], x2 = 0.6183	0.305	–
[1], x2 = 0.6614	0.286	–
[1], x2 = 0.7069	0.264	–
[1], x2 = 0.7552	0.235	–
[1], x2 = 0.8041	0.2	–
[1], x2 = 0.856	0.158	–
[1], x2 = 0.9056	0.111	–
[1], x2 = 0.955	0.057	–
[2], x2 = 0.097	–	2.96e-07
[2], x2 = 0.1823	–	5.2e-07
[2], x2 = 0.2485	–	6.56e-07
[2], x2 = 0.3223	–	7.83e-07
[2], x2 = 0.3863	–	8.63e-07
[2], x2 = 0.4452	–	9.09e-07
[2], x2 = 0.5075	–	9.32e-07
[2], x2 = 0.5553	–	9.44e-07
[2], x2 = 0.6017	–	9.31e-07
[2], x2 = 0.6519	–	9.05e-07
[2], x2 = 0.6946	–	8.56e-07
[2], x2 = 0.7436	–	7.87e-07
[2], x2 = 0.7672	–	7.53e-07
[2], x2 = 0.8482	–	5.78e-07
[2], x2 = 0.9107	–	3.7e-07
[2], x2 = 0.9606	–	1.78e-07

CCCCCCCCCCCCCCC [pentadecane] + CCCCOC(C)=O
Conditions	excess molar enthalpy [kcal/mol]	excess molar volume [m3/mol]
[1], x2 = 0.0884	0.0988	–
[1], x2 = 0.1775	0.179	–
[1], x2 = 0.2593	0.249	–
[1], x2 = 0.3266	0.29	–
[1], x2 = 0.3936	0.322	–
[1], x2 = 0.4468	0.341	–
[1], x2 = 0.4996	0.353	–
[1], x2 = 0.5472	0.356	–
[1], x2 = 0.5896	0.353	–
[1], x2 = 0.6217	0.345	–
[1], x2 = 0.6332	0.341	–
[1], x2 = 0.6756	0.322	–
[1], x2 = 0.7198	0.298	–
[1], x2 = 0.7661	0.269	–
[1], x2 = 0.8132	0.232	–
[1], x2 = 0.8631	0.187	–
[1], x2 = 0.9114	0.132	–
[1], x2 = 0.9607	0.0673	–
[2], x2 = 0.1004	–	3.55e-07
[2], x2 = 0.1982	–	6.25e-07
[2], x2 = 0.2765	–	7.99e-07
[2], x2 = 0.3418	–	9.17e-07
[2], x2 = 0.417	–	9.97e-07
[2], x2 = 0.4757	–	1.034e-06
[2], x2 = 0.5299	–	1.057e-06
[2], x2 = 0.5843	–	1.052e-06
[2], x2 = 0.6319	–	1.024e-06
[2], x2 = 0.6767	–	9.8e-07
[2], x2 = 0.7173	–	9.26e-07
[2], x2 = 0.7606	–	8.62e-07
[2], x2 = 0.7836	–	8.17e-07
[2], x2 = 0.8619	–	5.97e-07
[2], x2 = 0.9208	–	3.91e-07
[2], x2 = 0.9647	–	1.72e-07
